This is an account of results in patent US4225619A, “Substituted fluoracylresorcinols” (Boehringer Ingelheim GmBH, priority 1976, dated 1980).

SMILES strings stand for the structures. In brackets after ≈: the same amount, converted by molar mass. Read-outs that look alike come from different tables or passages of the source. A value given as a limit tells only on which side of the number the result lay.

In data set [1] the test system is Staphylococcus aureus SG 511. Description: Agar diffusion test (hole-test). Type of data set: cell-based. To be noted: SG511, 18-20 hours at 37° C., read-out: MIC, A.D.T., Staphylococcus aureus SG 511. As for the experimental part:
(§1) The inhibitory effect on bacteria and fungi was examined by the serial dilution test and the agar diffusion test (hole-test). As bacteria were used: Staphylococcus aureus SG 511, Streptococcus Aronson, Streptococcus pyogenes At CC 86 68; as fungi: Candida albicans AT CC 10231, Trichophyton mentagrophytes AT CC 9129 and Aspergillus niger.
1. Meat extract agar: for St. aureus SG 511
(§2) The age of the primary cultures is 24 hours for bacteria and 14 days for fungi. The standardization of the suspension of microorganisms is effected using a photometer according to Eppendorf (test tube .phi.14 mm, filter 546 nm) and a suspension for comparison consisting of barium sulfate, this suspension being created by addition of 3.0 ml of 1% barium chloride solution to 97 ml of 1% sulfuric acid. After the standardization St. aureus SG 511 was diluted 1:1000 and Sc. pyogenes and Aronson 1:100 by means of sodium chloride solution. The fungi were used in an undiluted state.
(§3) 40 mgm of the substance were put into a 10 ml measuring flask and filled up to the mark with the solvent (corresponds to a dilution of 1:250=4000 μg/ml).
(§4) The dilutions to the concentrations under test were effected with distilled water or the respective solvent.
(§5) 19 ml of the nutrient medium were filled into sterile Petri dishes of a diameter of 8 cm and dried. Subsequently the agar plates were charged with 4 ml of seed agar. 100 ml of seed agar contain 1.25 ml of the suspension of microorganisms, an agar plate thus containing 0.05 ml of the suspension of microorganisms. After solidification of the agar, 5 holes of a diameter of 5 mm were punched into the plates and filled with 0.05 ml of the correspondingly concentrated substance solution.
(§6) Control tests merely using the solvent are to be carried out simultaneously.
(§7) Bacteria were incubated at 37° C. for 18-20 hours and fungi at 27° C. for 7 days.
(§8) The diameter of the area of inhibition in mm was measured after having deducted the diameter of the hole.
(In agar diffusion tests the substance spreads into inoculated agar from a disc or well.)

In data set [2] the test system is Staphylococcus aureus SG 511. Description: Serial dilution test. As to conditions: Staphylococcus aureus, SG511, 18-20 hours at 37° C., read-out: MIC, S.D.T., Staphylococcus aureus SG 511. Type of data set: cell-based. On the procedure: as §1
1. Meat extract broth: for St. aureus SG 511
(§9) The age of the primary cultures is 24 hours for bacteria and 14 days for fungi. The standardization of the suspension of microorganisms is effected using a photometer according to Eppendorf (test tube .phi.14 mm, filter 546 nm) and a suspension for comparison consisting of barium sulfate, this suspension being created by adition of 3.0 ml of 1% barium chloride solution to 97 ml of 1% sulfuric acid. After the standardization the bacteria were further diluted to a concentration of 1:1000 by means of sodium chloride solution, the fungi were used in an undiluted state.
(§10) 40 mgm of the substance were put into a 10 ml measuring flask and filled up to the mark with the solvent (corresponds to a dilution of 1:250=4000 μg/ml). The further dilution series was standardized with distilled water or the respective solvent and the following substance concentrations were prepared: 1000; 250; 62.5 μg/ml.
(§11) The tubes were filled with 4.9 ml of the corresponding liquid nutrient medium. Then 0.1 ml of the substance dilution prepared above was added to each tube, so that the mentioned final concentrations were present. Finally each tube was inoculated with 0.1 ml of the standardized suspension of microorganisms. Control tests merely using the solvent are to be carried out simultaneously.
as §7
(§12) The measurement is carried out macroscopically defining the minimal inhibitory concentration (the lowest still microbiostatically effective concentration).

Data set [3] relates to Streptococcus Aronson. Description: Agar diffusion test (hole-test). The format is cell-based. As to conditions: 18-20 hours at 37° C., read-out: MIC, A.D.T., Streptococcus Aronson. As for the experimental part:
as §1
(§13) 2. Glucose agar: for Sc. Aronson and St. pyogenes Recipe see meat extract agar. After sterilization 1 weight percent of glucose is added as a sterile 50% solution.
as §2, §3, §4, §5, §6, §7, §8

Data set [4] deals with Streptococcus pyogenes At CC 86 68. The data set is described as follows: Agar diffusion test (hole-test). Type of data set: cell-based. As to conditions: ATCC8668, 18-20 hours at 37° C., read-out: MIC, A.D.T., Streptococcus pyogenes. As for the experimental part: as §1, §13, §2, §3, §4, §5, §6, §7, §8
Data set [5] has as its system Streptococcus Aronson. Description: Serial dilution test. Type of data set: cell-based. To be noted: Streptococcus, 18-20 hours at 37° C., read-out: MIC, S.D.T., Streptococcus Aronson. On the procedure: as §1
(§14) 2. Glucose broth: for Sc. Aronson and St. pyogenes Recipe see meat extract broth. After sterilization 1 weight percent of glucose is added as a sterile 50% solution.
as §9, §10, §11, §7, §12

The test system of data set [6] is Streptococcus pyogenes At CC 86 68. The data set is described as follows: Serial dilution test. Type of data set: cell-based. As to conditions: Streptococcus pyogenes, ATCC8668, 18-20 hours at 37° C., read-out: MIC, S.D.T., Streptococcus pyogenes. As for the experimental part:
as §1, §14, §9, §10, §11, §7, §12

A further data set concerns Corynebacterium acnes. Description: Serial dilution test for Corynebacterium acnes. Type of data set: cell-based. To be noted: Cutibacterium acnes, 37° C. for 48 hours, read-out: MIC, S.D.T., Corynebacterium acnes. As for the experimental part:
Serial dilution test for Corynebacterium acnes and Pityrosporum ovale Nutrient medium
For Corynebacterium acnes: thioglycolate-broth for Pityrosporum ovale: Littmann's broth, 5 ml per tube.
Suspension of microorganisms in 0.9% sodium chloride solution, standardized using a photometer according to Eppendorf by means of a suspension for comparison consisting of barium sulfate, for Corynebacterium acnes in a dilution of 1:100, for Pityrosporum ovale in an undiluted state. 0.1 ml of the suspensions was used per test tube. Dimethyl sulfoxide served as a solvent for the substances.
The suspension with Corynebacteria acnes was incubated at 37° C. for 48 hours, the suspension of Pityrosporum ovale at 27° C. for 7 days. The reading was effected by macroscopic evaluation of the growth of microorganisms and registration of the minimal inhibitory concentration.

The next data set relates to HeLa-cell culture. The data set is described as follows: Inhibition of HeLa cell cultures. The format is cell-based. As to conditions: Homo sapiens, 72 h, 37° C. for 3 days, 5% carbon dioxide. As for the experimental part:
Measurement of the inhibition of cell cultures
HeLa-cell culture was treated with trypsin and adjusted to a cell number of 150,000 cells/ml of fresh medium. The substance was always dissolved in the same quantity of dimethyl sulfoxide and then further diluted with growth medium. 0.1 ml of the substance-dilutions were added to each well of microtiter plates and then 0.2 ml of cell suspension were added (4 wells per dilution). Several growth controls containing 0.1 ml of growth medium instead of 0.1 ml of substance dilution were put up. After careful mixing, the cultures were incubated at 37° C. for 3 days in a 5% carbon dioxide atmosphere. The reading was effected in comparison with these controls. The results were given as the percentage of the deficiency and degeneration compared to the growth control. […] The statements are referred to μg of substance per ml of total medium.

Data set [7] in a line: Acute toxicity in mice (LD50). To be noted: mouse, in vivo, death within 14 days. On the procedure:
The acute toxicity was determined with mice. The LD50, the dose leading to the death of 50% of the animals within 14 days, was calculated.

For another data set, the system named is skin. Description: Compatibility on the skin under occlusion. The format is in vivo. As to conditions: cream containing 10%; over 24 hours under occlusion.
The test system of another data set is humans. As to conditions: in some cases; cited from earlier work.
The mark [8] stands for this setting: ip, read-out: LD50 in the mouse, i.p.
Setting [9] is: po, read-out: LD50 in the mouse, p.o.
Setting [10] is: sc, read-out: LD50 in the mouse, s.c.

The MIC is the smallest concentration in the dilution series that meets the test's criterion for growth inhibition. Usually LD50 stands for the dose expected to kill half of the subjects tested. For `CCCCCCc1cc(C(=O)C(F)(F)F)c(O)cc1O` [Compound E, 2,4-Dihydroxy-5-n-hexyl-trifluoroacetophenone], the minimum inhibitory concentration (MIC) in [1] was no more than 15.6 µg/mL; in [2], 1.25 µg/mL (≈ 4.31 µM); in the data set on Streptococcus Aronson [3], no more than 15.6 µg/mL; in data set [4] it was no more than 15.6 µg/mL; in the data set on Streptococcus Aronson [5], 0.31 µg/mL (≈ 1.07 µM); in [6], 0.31 µg/mL (≈ 1.07 µM). Moreover, in the data set with Corynebacterium acnes, the MIC was 0.08 µg/mL (≈ 0.276 µM). For the same compound, the IC50 in the data set on HeLa-cell culture (read-out: ED50, HeLa cell culture) came to 5.81 µg/mL (≈ 20 µM). The minimal effective concentration with HeLa-cell culture (read-out: Minimal inhibitory concentration, HeLa cell culture) was 0.78 µg/mL. Moreover, the values for the LD50 at 336 h in data set [7] (setting [8]), in data set [7] (setting [9]) and in data set [7] (setting [10]) were 82 mg/kg, greater than 3200 mg/kg and greater than 4000 mg/kg, respectively. The “compatibility on the skin” value in the data set on skin is recorded as “tolerated without irritation”.
On to `CC(C)c1cc(C(=O)C(F)(F)F)c(O)c(Cc2c(O)c(C(=O)C(F)(F)F)cc(C(C)C)c2O)c1O` [Compound Q, Methylene-bis-(2,6-dihydroxy-3-isopropyl-5-trifluoro-acetyl)-benzene], for which the MIC is no more than 15.6 µg/mL in [1]; 0.08 µg/mL (≈ 0.157 µM) in [2]; no more than 15.6 µg/mL in the data set on Streptococcus Aronson [3]; no more than 15.6 µg/mL in [4]; 1.25 µg/mL (≈ 2.46 µM) in the data set on Streptococcus Aronson [5]; 0.001 µg/mL (≈ 0.00197 µM) in [6]. Further, the minimal inhibitory concentration (MIC) in the data set with Corynebacterium acnes was 0.02 µg/mL (≈ 0.0393 µM). Besides, the values for the LD50 at 336 h in [7] (setting [8]), in data set [7] (setting [9]) and in data set [7] (setting [10]) were 400 mg/kg, greater than 4000 mg/kg and greater than 2 mg/kg, respectively.
Take `CCCCCCc1ccc(O)cc1O` [hexyl-resorcinol]: the allergies in humans result with humans is recorded as “in some cases cause allergies in humans”.
